Source: ChEMBL document CHEMBL4715710, “Discovery, synthesis, and structure-activity relationships of 20S-dammar-24-en-2α,3β,12β,20-tetrol (GP) derivatives as a new class of AMPKα2β1γ1 activators” (Bioorg Med Chem, 2016)
pEC50: −log10 of the molar value. Calls of active or inactive are those of the source. No cut-off for these calls is given here.

Tests used:
Homo sapiens = species on record: Homo sapiens; experiment: Activation of human recombinant AMPK alpha2/beta1/gamma1 using substrate-1 peptide as substrate incubated for 45 mins in presence of ATP by HTRF assay relative to negative control
[1] = Activation of human recombinant AMPK alpha2/beta1/gamma1 using substrate-1 peptide as substrate incubated for 45 mins in presence of ATP by HTRF assay; conditions: for pEC50: read-out: EC50
L6 = experiment: Effect on mitochondrial membrane potential in rat L6 cells at 5 to 40 uM measured after 1 hr by JC-1 staining based assay; assay type: functional, cell-based; conditions: dose 5-40 µM
HepG2 [2] = experiment: Activation of AMPK in human HepG2 cells assessed as induction of ACC phosphorylation at Ser79 residue measured after 1 hr by Western blot analysis; assay type: cell-based; conditions: filed as activator, dose 2.5-20 µM
[3] = Inhibition of gluconeogenesis in C57/BL6 mouse primary hepatocytes at 20 uM measured after 6 hrs relative to control; assay type: functional; conditions: C57/BL6, Hepatocyte
Hepatocyte = experiment: Cytotoxicity against C57/BL6 mouse primary hepatocytes at 5 to 40 uM measured after 24 hrs by sulforhodamine B assay; assay type: cell-based; conditions: dose 5-40 µM
HepG2 [4] = experiment: Activation of AMPK in human HepG2 cells assessed as induction of AMPK phosphorylation of Thr-172 residue at alpha subunit measured after 1 hr by Western blot analysis; assay type: cell-based; conditions: filed as activator, dose 2.5-20 µM
Syrian golden hamster [5] = experiment: Antidyslipidemic activity against HFHC diet-induced hyperlipidemia in Golden Syrian hamster model assessed as decrease in total cholesterol level at 100 mg/kg, po bid via gavage administered for 2 weeks and measured after 28 days by automated chemistry analyzer; assay type: functional, organism-based; conditions: Mesocricetus auratus
Syrian golden hamster [6] = experiment: Antidyslipidemic activity against HFHC diet-induced hyperlipidemia in Golden Syrian hamster model assessed as decrease in low density lipoprotein cholesterol at 100 mg/kg, po bid via gavage administered for 2 weeks and measured after 28 days by automated chemistry analyzer; assay type: functional, organism-based; conditions: Mesocricetus auratus
HepG2 [7] = experiment: Activation of AMPK in human HepG2 cells assessed as induction of ACC phosphorylation at Ser79 residue at 20 uM measured after 1 hr by Western blot analysis; assay type: cell-based; conditions: filed as activator
Syrian golden hamster [8] = experiment: Antidyslipidemic activity against HFHC diet-induced hyperlipidemia in Golden Syrian hamster model assessed as decrease in triglycerides at 100 mg/kg, po bid via gavage administered for 2 weeks and measured after 28 days by automated chemistry analyzer; assay type: functional, organism-based; conditions: Mesocricetus auratus
HepG2 [9] = experiment: Activation of AMPK in human HepG2 cells assessed as induction of AMPK phosphorylation at alpha subunit at 20 uM measured after 1 hr by Western blot analysis; assay type: cell-based; conditions: filed as activator
Syrian golden hamster [10] = experiment: Antidyslipidemic activity against HFHC diet-induced hyperlipidemia in Golden Syrian hamster model assessed as decrease in high density lipoprotein cholesterol at 100 mg/kg, po bid via gavage administered for 2 weeks and measured after 28 days by automated chemistry analyzer; assay type: functional, organism-based; conditions: Mesocricetus auratus
Syrian golden hamster [11] = experiment: Antidyslipidemic activity against HFHC diet-induced hyperlipidemia in Golden Syrian hamster model assessed as decrease in ratio of LDL-C to HDL-C at 100 mg/kg, po bid via gavage administered for 2 weeks and measured after 28 days by automated chemistry analyzer; assay type: functional, organism-based; conditions: Mesocricetus auratus
HepG2 [12] = experiment: Activation of AMPK in human HepG2 cells assessed as induction of AMPK phosphorylation at alpha subunit at 2.5 to 20 uM measured after 1 hr by Western blot analysis; assay type: cell-based; conditions: filed as activator, dose 2.5-20 µM
[13] = Inhibition of gluconeogenesis in C57/BL6 mouse primary hepatocytes at 10 to 20 uM measured after 6 hrs relative to control; assay type: functional, Hepatocyte; conditions: dose 10-20 µM
HepG2 [14] = experiment: Activation of AMPK in human HepG2 cells assessed as induction of ACC phosphorylation at Ser79 residue at 2.5 to 20 uM measured after 1 hr by Western blot analysis; assay type: cell-based; conditions: filed as activator, dose 2.5-20 µM

Compound	fold change (FC) (Homo sapiens; filed as activator)	pEC50 [1]	further results
CCNCCC[C@](C)(O)[C@H]1CC[C@]2(C)[C@@H]1[C@H](O)C[C@@H]1[C@@]3(C)C[C@@H](O)[C@H](O)C(C)(C)[C@@H]3CC[C@]12C	2.3	5.74	–
COc1ccc(NCCC[C@](C)(O)[C@H]2CC[C@]3(C)[C@@H]2[C@H](O)C[C@@H]2[C@@]4(C)C[C@@H](O)[C@H](O)C(C)(C)[C@@H]4CC[C@]23C)cc1	2.9	5.42	–
COc1ccc(CNCCC[C@](C)(O)[C@H]2CC[C@]3(C)[C@@H]2[C@H](O)C[C@@H]2[C@@]4(C)C[C@@H](O)[C@H](O)C(C)(C)[C@@H]4CC[C@]23C)cc1OC	2.8	5.96	–
CC(C)=CCC[C@](C)(O)[C@H]1CC[C@]2(C)[C@@H]1[C@H](O)C[C@@H]1[C@@]3(C)C[C@@H](O)[C@H](O)C(C)(C)[C@@H]3CC[C@]12C	2.4	5.29	Activity (Syrian golden hamster [5]): Active; Activity (Syrian golden hamster [6]): Active; Activity (HepG2 [7]): Active; Activity (Syrian golden hamster [8]): inactive; inhibition at 20 µM [3]: 25%; Activity (HepG2 [9]): Active; Activity (Syrian golden hamster [10]): inactive; Activity (Syrian golden hamster [11]): Active
CC(C)(O)[C@H]1CC[C@](C)([C@H]2CC[C@]3(C)[C@@H]2[C@H](O)C[C@@H]2[C@@]4(C)C[C@@H](O)[C@H](O)C(C)(C)[C@@H]4CC[C@]23C)O1	3.9	5.26	–
C[C@H](NCCC[C@](C)(O)[C@H]1CC[C@]2(C)[C@@H]1[C@H](O)C[C@@H]1[C@@]3(C)C[C@@H](O)[C@H](O)C(C)(C)[C@@H]3CC[C@]12C)c1ccccc1	2.8	5.85	–
CNCCC[C@](C)(O)[C@H]1CC[C@]2(C)[C@@H]1[C@H](O)C[C@@H]1[C@@]3(C)C[C@@H](O)[C@H](O)C(C)(C)[C@@H]3CC[C@]12C	2.6	5.72	–
CC1(C)[C@@H](O)[C@H](O)C[C@]2(C)[C@H]3C[C@@H](O)[C@@H]4[C@@H]([C@@](C)(O)CCCNCc5ccccc5)CC[C@@]4(C)[C@]3(C)CC[C@@H]12	3.4	5.29	–
COc1ccc(CNCCC[C@](C)(O)[C@H]2CC[C@]3(C)[C@@H]2[C@H](O)C[C@@H]2[C@@]4(C)C[C@@H](O)[C@H](O)C(C)(C)[C@@H]4CC[C@]23C)cc1	2.7	6.00	–
CC(C)CCC[C@](C)(O)[C@H]1CC[C@]2(C)[C@@H]1[C@H](O)C[C@@H]1[C@@]3(C)C[C@@H](O)[C@H](O)C(C)(C)[C@@H]3CC[C@]12C	–	–	fold change (FC) (Homo sapiens): < 1.5; EC50 [1]: Not Active

Further molecules by rising pEC50 [1], results first:

fold change (FC) (Homo sapiens; filed as activator)	pEC50 [1]	Compound	further results
3.6	5.06	CC(C)(O)[C@@H]1CC[C@](C)([C@H]2CC[C@]3(C)[C@@H]2[C@H](O)C[C@@H]2[C@@]4(C)C[C@@H](O)[C@H](O)C(C)(C)[C@@H]4CC[C@]23C)O1	–
2.1	5.31	CC(C)(C)NCCC[C@](C)(O)[C@H]1CC[C@]2(C)[C@@H]1[C@H](O)C[C@@H]1[C@@]3(C)C[C@@H](O)[C@H](O)C(C)(C)[C@@H]3CC[C@]12C	–
2.9	5.72	CCCNCCC[C@](C)(O)[C@H]1CC[C@]2(C)[C@@H]1[C@H](O)C[C@@H]1[C@@]3(C)C[C@@H](O)[C@H](O)C(C)(C)[C@@H]3CC[C@]12C	–
3.2	5.80	Nc1ncnc2c1ncn2[C@@H]1O[C@H](COP(=O)(O)O)[C@@H](O)[C@H]1O [ADENOSINE PHOSPHATE]	–
2	5.92	CC(C)NCCC[C@](C)(O)[C@H]1CC[C@]2(C)[C@@H]1[C@H](O)C[C@@H]1[C@@]3(C)C[C@@H](O)[C@H](O)C(C)(C)[C@@H]3CC[C@]12C	–
4.1	5.92	CC1(C)[C@@H](O)[C@H](O)C[C@]2(C)[C@H]3C[C@@H](O)[C@@H]4[C@@H]([C@@](C)(O)CCCNCc5ccncc5)CC[C@@]4(C)[C@]3(C)CC[C@@H]12	–
2	5.92	CC1(C)[C@@H](O)[C@H](O)C[C@]2(C)[C@H]3C[C@@H](O)[C@@H]4[C@@H]([C@@](C)(O)CCCNCCc5ccccc5)CC[C@@]4(C)[C@]3(C)CC[C@@H]12	–
2.8	6.00	CC1(C)[C@@H](O)[C@H](O)C[C@]2(C)[C@H]3C[C@@H](O)[C@@H]4[C@@H]([C@@](C)(O)CCCNCc5cccnc5)CC[C@@]4(C)[C@]3(C)CC[C@@H]12	Activity (L6): Active; Activity (HepG2 [12]): Active; inhibition (INH) [13]: 20%; Activity (HepG2 [14]): Active
3	6.10	CC1(C)[C@@H](O)[C@H](O)C[C@]2(C)[C@H]3C[C@@H](O)[C@@H]4[C@@H]([C@@](C)(O)CCCNCc5ccccn5)CC[C@@]4(C)[C@]3(C)CC[C@@H]12	Activity (L6): Active; Activity (HepG2 [12]): Active; inhibition (INH) [13]: 20%; Activity (HepG2 [14]): Active
2.7	6.10	CC1(C)[C@@H](O)[C@H](O)C[C@]2(C)[C@H]3C[C@@H](O)[C@@H]4[C@@H]([C@@](C)(O)CCCNCCCc5ccccc5)CC[C@@]4(C)[C@]3(C)CC[C@@H]12	Activity (L6): Active; Activity (HepG2 [2]): Dose-dependent effect; inhibition at 20 µM [3]: 80%; Activity (Hepatocyte): Non-Toxic; Activity (HepG2 [4]): Dose-dependent effect
3.2	6.52	CC1(C)[C@@H](O)[C@H](O)C[C@]2(C)[C@H]3C[C@@H](O)[C@@H]4[C@@H]([C@@](C)(O)CCCNCc5ccc(F)cc5)CC[C@@]4(C)[C@]3(C)CC[C@@H]12	Activity (L6): Active; Activity (HepG2 [2]): Dose-dependent effect; inhibition at 20 µM [3]: 80%; Activity (Hepatocyte): Non-Toxic; Activity (HepG2 [4]): Dose-dependent effect
4.2	8.02	N#Cc1c(O)c2c(-c3ccc(-c4ccccc4O)cc3)csc2[nH]c1=O	–
